# Publication PMC9305971, “Development of [^18F]AmBF3 Tetrazine for Radiolabeling of Peptides: Preclinical Evaluation and PET Imaging of [^18F]AmBF3-PEG7-Tyr^3-Octreotide in an AR42J Pancreatic Carcinoma Model” (Bioconjugate Chemistry, 2022)
# Read-outs that look alike come from different tables or passages of the source.
# What was measured:
# [1] = Enzymatic stability in 50% human plasma-0.01 M PBS; type: in vitro ADME; settings: 50% (v/v) human plasma-0.01 M PBS, 37 °C
# Experimental: Lipophilicity was determined with the shake-flask method as a distribution coefficient between 0.01 M PBS and octanol. Purified radiotracer [^18F]6 (10 μL, ∼200 kBq, 1.5 nmol), [^18F]14 (20 μL, ∼260 kBq, 125 pmol), or [^18F]15 (20 μL, 144 kBq, 67 pmol) in a polypropylene tube containing 1500–2000 μL of each in a 1:1 mixture (1-octanol, 0.02 M PBS, pH 7.4) was shaken mechanically (500 rpm, 10 min) and centrifuged (1000g, 5 min), and samples from each layer (400 μL, n = 4) were measured with a γ-counter. The log D7.4 was calculated as a distribution between the two layers at pH 7.4. [^18F]6 (10 MBq, 40 nmol) diluted with 0.01 M PBS at pH 7.4 (≤1% ethanol, 5300 μL) was incubated for 180 min. At selected time points (5, 30, 60, 90, 120, 150, and 180 min), a sample (100 μL) was injected to radio-HPLC. [^18F]14 and [^18F]15 (29 MBq, 10 nmol) diluted in 2000 μL of 0.01 M PBS (≤1% ethanol) were left to incubate. A sample of [^18F]14 (100 μL) after 9 hours and [^18F]15 at selected time points between 30 and 335 min were injected into HPLC (method A). [^18F]15 (0.6 MBq, 0.134 nmol, 200 μL) formulated in ≤5% EtOH-1 × PBS was added and incubated in 2000 μL of PBS-50% human plasma at 37 °C. A 100 μL sample (at 60, 120, 180, and 240 min, n = 2) was diluted with 200 μL of cold acetonitrile and centrifuged (10,000g, 5 min). […]
# [2] = Hydrolytic stability in 0.01 M PBS / formulated solution (radio-HPLC); type: physicochemical; settings: 4% ethanol-0.01 M PBS (pH 7.4), several time points up to 6 h
# Experimental: (§1) Lipophilicity was determined with the shake-flask method as a distribution coefficient between 0.01 M PBS and octanol. Purified radiotracer [^18F]6 (10 μL, ∼200 kBq, 1.5 nmol), [^18F]14 (20 μL, ∼260 kBq, 125 pmol), or [^18F]15 (20 μL, 144 kBq, 67 pmol) in a polypropylene tube containing 1500–2000 μL of each in a 1:1 mixture (1-octanol, 0.02 M PBS, pH 7.4) was shaken mechanically (500 rpm, 10 min) and centrifuged (1000g, 5 min), and samples from each layer (400 μL, n = 4) were measured with a γ-counter. The log D7.4 was calculated as a distribution between the two layers at pH 7.4. [^18F]6 (10 MBq, 40 nmol) diluted with 0.01 M PBS at pH 7.4 (≤1% ethanol, 5300 μL) was incubated for 180 min. At selected time points (5, 30, 60, 90, 120, 150, and 180 min), a sample (100 μL) was injected to radio-HPLC. [^18F]14 and [^18F]15 (29 MBq, 10 nmol) diluted in 2000 μL of 0.01 M PBS (≤1% ethanol) were left to incubate. A sample of [^18F]14 (100 μL) after 9 hours and [^18F]15 at selected time points between 30 and 335 min were injected into HPLC (method A). [^18F]15 (0.6 MBq, 0.134 nmol, 200 μL) formulated in ≤5% EtOH-1 × PBS was added and incubated in 2000 μL of PBS-50% human plasma at 37 °C. A 100 μL sample (at 60, 120, 180, and 240 min, n = 2) was diluted with 200 μL of cold acetonitrile and centrifuged (10,000g, 5 min). After centrifugation, a 100 μL sample of the supernatant was injected for radio-HPLC analysis.
# [3] = Lipophilicity, shake-flask log D7.4 (1-octanol/PBS); type: physicochemical; settings: 1-octanol/PBS pH 7.4, n = 4
# Experimental: as §1, with “analysis. […]” for “analysis.”
# Lipophilicity. The lipophilicities were determined with the shake-flask method as a distribution profile between 0.01 M PBS and octanol at pH 7.4. The distribution of the radiolabeled compound between the octanol and the PBS layers was calculated according
# AR42J xenografts = assay: Ex vivo biodistribution of [18F]14 and [18F]15; type: in vivo, Rj:NMRI-Foxn1^nu/nu mice
# Experimental: (§2) [^18F]14 and [^18F]15 in ≤4% ethanol–0.01 M PBS were administered intravenously (1.2 ± 0.0 and 2.0 ± 0.1 MBq, respectively, 0.2 nmol, 150 μL) to AR42J tumor-bearing Rj:NMRI-Foxn1^nu/nu mice. At predetermined time points (t = 30, 60, 120, and 240 min), animals were euthanized with CO2 asphyxiation and cervical dislocation, and then the organs were harvested, washed with water, and blotted dry, following with weighing and γ counting from which the % ID/g in tissues was determined.
# [4] = Ex vivo biodistribution of [18F]14 and [18F]15; type: in vivo, Rj:NMRI-Foxn1^nu/nu mice; settings: mouse, iv, 0.2 nmol; for tissue to tissue ratio at 1 h: Rj:NMRI-Foxn1^nu/nu, tumor (AR42J xenograft) / blood, total radioactivity, read-out: T/blood ratio; for tissue to tissue ratio at 1 h / tissue uptake at 1 h: 60 min post injection; for tissue uptake at 1 h / tissue uptake at 2 h: i.v.; for tissue uptake at 2 h: 120 min post injection
# Experimental: as §2
smiles,measurement,setting,value
C[C@@H](O)[C@@H]1NC(=O)[C@H](CCCCN)NC(=O)[C@@H](Cc2c[nH]c3ccccc23)NC(=O)[C@H](Cc2ccc(O)cc2)NC(=O)[C@@H](NC(=O)[C@@H](Cc2ccccc2)NC(=O)CCOCCOCCOCCOCCON=Cc2ccc(C(=O)NCCOCCOCCOCCNC(=O)OC3CCCc4cnnc(-c5ccc(CC(=O)NCC[N+](C)(C)C[B-](F)(F)F)cc5)c4CC3)cc2)CSSC[C@@H](C(=O)N[C@H](CO)[C@@H](C)O)NC1=O (stereo partly shown) [[^18F]15],"enzymatic stability, time stable",[1],at least 180 min
same,stability in the formulated solution,[2],stable
same,log D7.4,[3],−0.73 ± 0.12
same,logD,[3],-0.7 ± 0.1
same,urine,"AR42J xenografts; 60 min post injection, i.v., baseline",174.2 ± 73.4 % ID/g
same,defluorination in vivo (in words),AR42J xenografts; judged from bone uptake,no indication of defluorination
same,tissue to tissue ratio at 1 h,[4]; blocked,0.4
same,tissue to tissue ratio at 1 h,[4]; baseline,0.5
same,tissue uptake at 1 h,"[4]; baseline, read-out: blood",9.6 ± 3.3 %ID/g
same,tissue uptake at 1 h,"[4]; baseline, read-out: brain",0.3 ± 0.1 %ID/g
same,tissue uptake at 1 h,"[4]; baseline, read-out: gallbladder",9.1 ± 7 %ID/g
same,tissue uptake at 1 h,"[4]; baseline, read-out: heart",2.6 ± 0.6 %ID/g
same,tissue uptake at 1 h,"[4]; baseline, read-out: kidney",21 ± 4.5 %ID/g
same,tissue uptake at 1 h,"[4]; baseline, read-out: liver",19 ± 5.4 %ID/g
same,tissue uptake at 1 h,"[4]; baseline, read-out: lung",5.4 ± 2.3 %ID/g
same,tissue uptake at 1 h,"[4]; baseline, read-out: muscle",1.1 ± 0.9 %ID/g
same,tissue uptake at 1 h,"[4]; baseline, read-out: pancreas",1.6 ± 0.5 %ID/g
same,tissue uptake at 1 h,"[4]; baseline, read-out: skin",2.4 ± 0.9 %ID/g
same,tissue uptake at 1 h,"[4]; baseline, read-out: spleen",1.4 ± 0.3 %ID/g
same,tissue uptake at 1 h,"[4]; baseline, read-out: urine",~174 %ID/g
same,tissue uptake at 1 h,"[4]; blocked with octreotide, read-out: blood",7.2 ± 2.5 %ID/g
same,tissue uptake at 1 h,"[4]; blocked with octreotide, read-out: brain",0.2 ± 0.1 %ID/g
same,tissue uptake at 1 h,"[4]; blocked with octreotide, read-out: gallbladder",18.8 ± 10.3 %ID/g
same,tissue uptake at 1 h,"[4]; blocked with octreotide, read-out: heart",2.1 ± 0.5 %ID/g
same,tissue uptake at 1 h,"[4]; blocked with octreotide, read-out: kidney",15.9 ± 2.7 %ID/g
same,tissue uptake at 1 h,"[4]; blocked with octreotide, read-out: liver",11.8 ± 4.7 %ID/g
same,tissue uptake at 1 h,"[4]; blocked with octreotide, read-out: lung",3.6 ± 1.4 %ID/g
same,tissue uptake at 1 h,"[4]; blocked with octreotide, read-out: muscle",0.5 ± 0.1 %ID/g
same,tissue uptake at 1 h,"[4]; blocked with octreotide, read-out: pancreas",0.9 ± 0.5 %ID/g
same,tissue uptake at 1 h,"[4]; blocked with octreotide, read-out: skin",1.6 ± 0.2 %ID/g
same,tissue uptake at 1 h,"[4]; blocked with octreotide, read-out: spleen",0.9 ± 0.2 %ID/g
same,tissue uptake at 1 h,"[4]; blocked with octreotide, read-out: urine",303 ± 146 %ID/g
same,tissue uptake at 1 h,"[4]; large intestine with contents, baseline, read-out: L. I. (+cont.), large intestine",1 ± 0.7 %ID/g
same,tissue uptake at 1 h,"[4]; large intestine with contents, blocked with octreotide, read-out: L. I. (+cont.), large intestine",0.7 ± 0.3 %ID/g
same,tissue uptake at 1 h,"[4]; occipital bone, baseline, read-out: bone, occipital",0.9 ± 0.3 %ID/g
same,tissue uptake at 1 h,"[4]; occipital bone, blocked with octreotide, read-out: bone, occipital",1 ± 0.3 %ID/g
same,tissue uptake at 2 h,"[4]; occipital bone, read-out: bone, occipital",0.6 ± 0.1 %ID/g
same,tissue uptake at 1 h,"[4]; small intestine with contents, baseline, read-out: S. I. (+cont.), small intestines",3.6 ± 2.1 %ID/g
same,tissue uptake at 1 h,"[4]; small intestine with contents, blocked with octreotide, read-out: S. I. (+cont.), small intestines",5 ± 1.7 %ID/g
same,tissue uptake at 1 h,"[4]; stomach with contents, baseline, read-out: stomach (+cont.)",1.4 ± 0.8 %ID/g
same,tissue uptake at 1 h,"[4]; stomach with contents, blocked with octreotide, read-out: stomach (+cont.)",0.6 ± 0.1 %ID/g
same,tissue uptake at 1 h,"[4]; tibia bone, baseline, read-out: bone, tibia",1.1 ± 0.4 %ID/g
same,tissue uptake at 1 h,"[4]; tibia bone, blocked with octreotide, read-out: bone, tibia",0.8 ± 0.2 %ID/g
same,tissue uptake at 2 h,"[4]; tibia bone, read-out: bone, tibia",0.6 ± 0.4 %ID/g
same,tissue uptake at 1 h,"[4]; tumor, AR42J xenograft, baseline, read-out: tumor uptake",4.5 ± 1 %ID/g
same,tissue uptake at 1 h,"[4]; tumor, AR42J xenograft, blocked with octreotide, read-out: tumor uptake",3.1 ± 0.5 %ID/g
